“And” between values parts separate entries of the source, which are not always exact repeats. Equal entries are not always repeated.
Key:
[1] = Pharmacokinetics in whole blood, Sprague-Dawley rats; conditions: for % Parent AUCAll: Sprague-Dawley rat, metabolite AUCall/Parent AUCall x 100; for Whole Blood Conc. of compound 2: Sprague-Dawley rats; for concentration at 4 h / concentration at 8 h / concentration at 2 h / concentration at 0.5 h: Sprague-Dawley, rat, whole blood, po, Whole Blood Conc. of compound 2, Sprague-Dawley rats
[2] = Pharmacokinetics in whole blood, cynomolgus monkeys
[3] = Pharmacokinetics in whole blood, CD-1 mice; conditions: for % Parent AUCAll: CD1 mouse, metabolite AUCall/Parent AUCall x 100; for Whole Blood Conc. of compound 2: CD-1 mice; for concentration at 0.083 h / concentration at 2 h / concentration at 4 h / concentration at 8 h / concentration at 0.333 h / concentration at 0.5 h / concentration at 1 h: male, CD-1, mouse, whole blood, po, Whole Blood Conc. of compound 2, CD-1 mice
Description: The whole blood samples (0.5 mL) were collected into syringes that were prefilled with 2.5 mL of ice-cold 0.1% formic acid in acetonitrile. The volume ratio of the whole blood to 0.1% formic acid in acetonitrile was 1/5 (v/v). Samples were frozen (-70°C) until analyzed by LC-MS/MS.
Standard curves and quality control (QC) samples were prepared fresh on the day of analysis by serial dilution of the standard mixture in quenched whole blood (1 part of blood to 5 parts of 0.1% formic acid in acetonitrile) and centrifuged. […] The frozen study samples were thawed in an ice/water bath and centrifuged. Supernatant (50 μL) from standards, QC samples, and study samples was transferred to a 96-well plate and dried completely under nitrogen. The dried residues were reconstituted with 100 μL of 0.1% formic acid in water containing internal standard (5 ng/mL of ^15N/^13C3-RE-024-02) and analyzed by LC-MS/MS.
LC-MS/MS analysis for blood pharmacokinetic samples: Samples were analyzed using an Agilent 1100 binary pump (Agilent Technologies, Santa Clara, CA, USA), connected to an AB Sciex API 6500 mass spectrometer (SCIEX, Framingham, MA, USA). An electrospray ionization source was used, scanning in the positive mode. […] The chromatography column was a Varian Metasil AQ 120–5 C18 column, 5 μm, 50 x 2.00 mm (Part No. A0530050X020) at ambient temperature, with a 0.5 mL/min flow rate and a 20 μL injection volume. Mobile phase (A) consisted of 0.1% formic acid in water; while mobile phase (B) consisted of 0.1% formic acid in acetonitrile:water (9:1, v/v).
Quantitation of in vivo samples: Peak areas were integrated using Analyst software (AB Sciex, Concord, Ontario, Canada). […] Calibration standards (at a minimum 7 per curve) were fit by linear regression with (1/x^2) weighting. QC samples were used (triplicate) at 3 concentrations for all tandem mass spectrometry (MS/MS) runs.
Pharmacokinetic calculations: PK analysis was performed using Phoenix WinNonlin®, Build 6.3.0.395 (Certara, Princeton, NJ, USA) using a non-compartmental model (PO dose = model 200 for extravascular dosing). […] Post-dose concentrations below the limit of quantitation (BLQ) were omitted from calculation.

[4] = 100 mg/kg, single 100 mg/kg RE-024-02 PO, LLOQ 3 ng/mL
[5] = 100 mg/kg, single 100 mg/kg RE-024-02 PO, LLOQ 10.2 nM

For COC(=O)CCNC(=O)[C@@H]1OP(=O)(O)OCC1(C)C [Compound 2], the “% Parent AUCAll” value ([1]; 300 mg/kg PO) was 1,250%, the “% Parent AUCAll” value ([1]; 700 mg/kg PO) was 220% and the “Whole Blood Conc. of compound 2” value ([1]; single 300 mg/kg RE-024-02 PO, time 2, LLOQ 3 ng/mL, 300 mg/kg) was 38.46 ng/mL and 47.10 ng/mL. The “Whole Blood Conc. of compound 2” value ([1]; single 300 mg/kg RE-024-02 PO, time 2, LLOQ 10.2 nM, 300 mg/kg) was 130.27 nM and 159.54 nM, the “Whole Blood Conc. of compound 2” value ([1]; single 300 mg/kg RE-024-02 PO, time 8, LLOQ 3 ng/mL, 300 mg/kg) was 5.25 ng/mL and 7.14 ng/mL and the “Whole Blood Conc. of compound 2” value ([1]; single 300 mg/kg RE-024-02 PO, time 8, LLOQ 10.2 nM, 300 mg/kg) was 17.78 nM and 24.18 nM. The “Whole Blood Conc. of compound 2” value ([1]; single 700 mg/kg RE-024-02 PO, time 0.5, LLOQ 3 ng/mL, 700 mg/kg) was 247.20 ng/mL and 285.00 ng/mL, the “Whole Blood Conc. of compound 2” value ([1]; single 700 mg/kg RE-024-02 PO, time 0.5, LLOQ 10.2 nM, 700 mg/kg) was 837.31 nM and 965.35 nM and the “Whole Blood Conc. of compound 2” value ([1]; single 700 mg/kg RE-024-02 PO, time 2, LLOQ 3 ng/mL, 700 mg/kg) was 61.80 ng/mL and 118.20 ng/mL. The “Whole Blood Conc. of compound 2” value ([1]; single 700 mg/kg RE-024-02 PO, time 2, LLOQ 10.2 nM, 700 mg/kg) was 209.33 nM and 400.37 nM, the concentration at 4 h ([1]; 100 mg/kg, single 100 mg/kg RE-024-02 PO, time 4, LLOQ 3 ng/mL) was 5.57 ng/mL and the concentration at 4 h ([1]; 100 mg/kg, single 100 mg/kg RE-024-02 PO, time 4, LLOQ 10.2 nM) was 18.9 nM. It also gave a concentration at 8 h ([1]; 100 mg/kg, single 100 mg/kg RE-024-02 PO, time 8, LLOQ 3 ng/mL) of 6.42 ng/mL, a concentration at 8 h ([1]; 100 mg/kg, single 100 mg/kg RE-024-02 PO, time 8, LLOQ 10.2 nM) of 21.8 nM and a concentration at 2 h ([1]; 300 mg/kg, single 300 mg/kg RE-024-02 PO, time 2, LLOQ 10.2 nM) of 258 nM. The concentration at 8 h ([1]; 300 mg/kg, single 300 mg/kg RE-024-02 PO, time 8, LLOQ 3 ng/mL) was 9.36 ng/mL, the concentration at 8 h ([1]; 300 mg/kg, single 300 mg/kg RE-024-02 PO, time 8, LLOQ 10.2 nM) was 31.7 nM and the concentration at 2 h ([1]; male, 300 mg/kg, single 300 mg/kg RE-024-02 PO, time 2, LLOQ 3 ng/mL) was 76.2 ng/mL. It also gave a concentration at 0.5 h ([1]; male, 700 mg/kg, single 700 mg/kg RE-024-02 PO, time 0.5, LLOQ 3 ng/mL) of 452 ng/mL, a concentration at 0.5 h ([1]; male, 700 mg/kg, single 700 mg/kg RE-024-02 PO, time 0.5, LLOQ 10.2 nM) of 1530 nM and a concentration at 2 h ([1]; male, 700 mg/kg, single 700 mg/kg RE-024-02 PO, time 2, LLOQ 3 ng/mL) of 105 ng/mL. For the same compound, the concentration at 2 h ([1]; male, 700 mg/kg, single 700 mg/kg RE-024-02 PO, time 2, LLOQ 10.2 nM) was 356 nM, the “% Parent AUCAll” value ([2]; Cynomolgus monkey, 300 mg/kg PO, metabolite AUCall/Parent AUCall x 100) was 132% and the concentration at 0.5 h ([2]; cynomolgus monkey, whole blood, po, 300 mg/kg, Concentration of compound 2 in whole blood, cynomolgus monkeys, single oral 300 mg/kg fosmetpantotenate, 0.5 hr, LLOQ 2.03 nM) was 1860 nM. It also gave a concentration at 1 h ([2]; cynomolgus monkey, whole blood, po, 300 mg/kg, Concentration of compound 2 in whole blood, cynomolgus monkeys, single oral 300 mg/kg fosmetpantotenate, 1 hr, LLOQ 2.03 nM) of 1970 nM, a concentration at 4 h ([2]; cynomolgus monkey, whole blood, po, 300 mg/kg, Concentration of compound 2 in whole blood, cynomolgus monkeys, single oral 300 mg/kg fosmetpantotenate, 4 hr, LLOQ 2.03 nM) of 2350 nM and a concentration at 8 h ([2]; cynomolgus monkey, whole blood, po, 300 mg/kg, Concentration of compound 2 in whole blood, cynomolgus monkeys, single oral 300 mg/kg fosmetpantotenate, 8 hr, LLOQ 2.03 nM) of 1150 nM. For the same compound, the “Concentration of compound 2 in whole blood” value ([2]; cynomolgus monkeys, single oral 300 mg/kg fosmetpantotenate, 0.083 hr, LLOQ 2.03 nM) was “BQL”, the “Concentration of compound 2 in whole blood” value ([2]; cynomolgus monkeys, single oral 300 mg/kg fosmetpantotenate, 0.5 hr, LLOQ 2.03 nM, 300 mg/kg) was 1210.45 nM and the “Concentration of compound 2 in whole blood” value ([2]; cynomolgus monkeys, single oral 300 mg/kg fosmetpantotenate, 1 hr, LLOQ 2.03 nM, 300 mg/kg) was 2023.57 nM. The “Concentration of compound 2 in whole blood” value ([2]; cynomolgus monkeys, single oral 300 mg/kg fosmetpantotenate, 4 hr, LLOQ 2.03 nM, 300 mg/kg) was 4441.22 nM, the “Concentration of compound 2 in whole blood” value ([2]; cynomolgus monkeys, single oral 300 mg/kg fosmetpantotenate, 8 hr, LLOQ 2.03 nM, 300 mg/kg) was 996.85 nM and the “% Parent AUCAll” value ([3]; 100 mg/kg PO) was 8,550%. The “% Parent AUCAll” value ([3]; 300 mg/kg PO) was 29,800%, the “% Parent AUCAll” value ([3]; 700 mg/kg PO) was 7,220% and the “Whole Blood Conc. of compound 2” value ([3]; single 300 mg/kg RE-024-02 PO, 0.333 hr, LLOQ 3 ng/mL, 300 mg/kg) was 495 ng/mL and 550.2 ng/mL and 391.2 ng/mL. For the same compound, the “Whole Blood Conc. of compound 2” value ([3]; single 300 mg/kg RE-024-02 PO, 0.333 hr, LLOQ 10.2 nM, 300 mg/kg) was 1676.7 nM and 1863.6 nM and 1325.1 nM, the “Whole Blood Conc. of compound 2” value ([3]; single 300 mg/kg RE-024-02 PO, 0.5 hr, LLOQ 3 ng/mL, 300 mg/kg) was 472.2 ng/mL and 328.2 ng/mL and 282 ng/mL and the “Whole Blood Conc. of compound 2” value ([3]; single 300 mg/kg RE-024-02 PO, 0.5 hr, LLOQ 10.2 nM, 300 mg/kg) was 1599.4 nM and 1111.7 nM and 955.2 nM. The “Whole Blood Conc. of compound 2” value ([3]; single 300 mg/kg RE-024-02 PO, 4 hr, LLOQ 3 ng/mL, 300 mg/kg) was 15.4 ng/mL and 22.8 ng/mL and 26.2 ng/mL, the “Whole Blood Conc. of compound 2” value ([3]; single 300 mg/kg RE-024-02 PO, 4 hr, LLOQ 10.2 nM, 300 mg/kg) was 52.2 nM and 77.2 nM and 88.6 nM and the “Whole Blood Conc. of compound 2” value ([3]; single 700 mg/kg RE-024-02 PO, 0.333 hr, LLOQ 3 ng/mL, 700 mg/kg) was 1656 ng/mL. For the same compound, the “Whole Blood Conc. of compound 2” value ([3]; single 700 mg/kg RE-024-02 PO, 0.333 hr, LLOQ 10.2 nM, 700 mg/kg) was 5609.2 nM, the “Whole Blood Conc. of compound 2” value ([3]; single 700 mg/kg RE-024-02 PO, 1 hr, LLOQ 3 ng/mL, 700 mg/kg) was 318 ng/mL and 373.2 ng/mL and 381 ng/mL and the “Whole Blood Conc. of compound 2” value ([3]; single 700 mg/kg RE-024-02 PO, 1 hr, LLOQ 10.2 nM, 700 mg/kg) was 1077.1 nM and 1264.1 nM and 1290.5 nM. For the same compound, the “Whole Blood Conc. of compound 2” value ([3]; single 700 mg/kg RE-024-02 PO, 4 hr, LLOQ 3 ng/mL, 700 mg/kg) was 84 ng/mL and 92.4 ng/mL and 88.2 ng/mL, the “Whole Blood Conc. of compound 2” value ([3]; single 700 mg/kg RE-024-02 PO, 4 hr, LLOQ 10.2 nM, 700 mg/kg) was 284.5 nM and 313 nM and 298.8 nM and the concentration at 0.083 h [3, 4] was 17.4 ng/mL. It also gave a concentration at 0.083 h [3, 5] of 58.9 nM, a concentration at 2 h [3, 4] of 5.1 ng/mL and a concentration at 2 h [3, 5] of 17.3 nM. The concentration at 4 h ([3]; 100 mg/kg, single 100 mg/kg RE-024-02 PO, 4 hr, LLOQ 3 ng/mL) was 3.5 ng/mL, the concentration at 4 h ([3]; 100 mg/kg, single 100 mg/kg RE-024-02 PO, 4 hr, LLOQ 10.2 nM) was 11.7 nM and the concentration at 8 h [3, 4] was 3.5 ng/mL. It also gave a concentration at 8 h [3, 5] of 11.9 nM, a concentration at 0.333 h ([3]; 300 mg/kg, single 300 mg/kg RE-024-02 PO, 0.333 hr, LLOQ 3 ng/mL) of 443 ng/mL and a concentration at 0.333 h ([3]; 300 mg/kg, single 300 mg/kg RE-024-02 PO, 0.333 hr, LLOQ 10.2 nM) of 1500 nM. It also gave a concentration at 0.5 h ([3]; 300 mg/kg, single 300 mg/kg RE-024-02 PO, 0.5 hr, LLOQ 3 ng/mL) of 254 ng/mL, a concentration at 0.5 h ([3]; 300 mg/kg, single 300 mg/kg RE-024-02 PO, 0.5 hr, LLOQ 10.2 nM) of 860 nM and a concentration at 4 h ([3]; 300 mg/kg, single 300 mg/kg RE-024-02 PO, 4 hr, LLOQ 3 ng/mL) of 21.9 ng/mL. For the same compound, the concentration at 4 h ([3]; 300 mg/kg, single 300 mg/kg RE-024-02 PO, 4 hr, LLOQ 10.2 nM) was 74.2 nM, the concentration at 0.333 h ([3]; 700 mg/kg, single 700 mg/kg RE-024-02 PO, 0.333 hr, LLOQ 3 ng/mL) was 1910 ng/mL and the concentration at 0.333 h ([3]; 700 mg/kg, single 700 mg/kg RE-024-02 PO, 0.333 hr, LLOQ 10.2 nM) was 6460 nM. For the same compound, the concentration at 1 h ([3]; 700 mg/kg, single 700 mg/kg RE-024-02 PO, 1 hr, LLOQ 3 ng/mL) was 541 ng/mL, the concentration at 1 h ([3]; 700 mg/kg, single 700 mg/kg RE-024-02 PO, 1 hr, LLOQ 10.2 nM) was 1830 nM and the concentration at 4 h ([3]; 700 mg/kg, single 700 mg/kg RE-024-02 PO, 4 hr, LLOQ 3 ng/mL) was 104 ng/mL. It also gave a concentration at 4 h ([3]; 700 mg/kg, single 700 mg/kg RE-024-02 PO, 4 hr, LLOQ 10.2 nM) of 354 nM.

— article PMC5844530, “Fosmetpantotenate (RE-024), a phosphopantothenate replacement therapy for pantothenate kinase-associated neurodegeneration: Mechanism of action and efficacy in nonclinical models” (PLoS ONE, 2018)
